Results reported in PMC10096648, “A conserved hymenopteran-specific family of cytochrome P450s protects bee pollinators from toxic nectar alkaloids” (Science Advances, 2023).

Tests used:
CYP336A1 = target: T1, CYP336A1 (Apis mellifera, UniProt A0A8U0WT43, D298G); assay: fluorogenic model substrate assay, recombinant microsomes; assay type: biochemical; settings: NADPH; activity present only in the mutant
T1 construct: gene LOC724211; codon-optimised; microsomes of baculovirus-infected High Five insect cells, coexpressed with A. mellifera NADPH-cytochrome P450 reductase

[1] = substrate: CN1CCC[C@H]1c1cccnc1; assay: nicotine depletion by UPLC-MS/MS, recombinant microsomes; assay type: biochemical, Apis mellifera; settings: NADPH regeneration system, pH 7.6, 30°C, 30 min, 0.78-100 μM nicotine

T1 sequence (A0A8U0WT43 entry or part of it D298G): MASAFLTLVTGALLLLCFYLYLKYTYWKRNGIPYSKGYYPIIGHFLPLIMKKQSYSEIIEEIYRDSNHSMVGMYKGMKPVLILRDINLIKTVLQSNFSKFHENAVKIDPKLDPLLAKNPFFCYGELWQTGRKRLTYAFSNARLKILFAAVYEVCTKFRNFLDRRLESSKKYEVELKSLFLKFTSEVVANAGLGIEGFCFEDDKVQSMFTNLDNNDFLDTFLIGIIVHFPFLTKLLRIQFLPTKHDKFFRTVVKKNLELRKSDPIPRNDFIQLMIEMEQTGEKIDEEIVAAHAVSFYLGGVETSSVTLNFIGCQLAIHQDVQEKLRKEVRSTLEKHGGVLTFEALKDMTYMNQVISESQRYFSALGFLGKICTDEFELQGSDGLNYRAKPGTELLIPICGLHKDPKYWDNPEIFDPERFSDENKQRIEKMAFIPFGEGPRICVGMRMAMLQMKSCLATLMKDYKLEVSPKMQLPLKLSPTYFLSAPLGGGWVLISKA

For O=c1cc(C(F)(F)F)c2ccc(OCc3ccccc3)cc2o1 [BFC, 7-benzyloxy-4-(trifluoromethyl)coumarin], the “fluorogenic model substrate assay, recombinant microsomes” value (CYP336A1) was “the D298G substitution leads to significant activity toward BFC”.

B1: CYP336A1 (Apis mellifera) (protein)
chain: MASAFLTLVTGALLLLCFYLYLKYTYWKRNGIPYSKGYYPIIGHFLPLIMKKQSYSEIIEEIYRDSNHSMVGMYKGMKPVLILRDINLIKTVLQSNFSKFHENAVKIDPKLDPLLAKNPFFCYGELWQTGRKRLTYAFSNARLKILFAAVYEVCTKFRNFLDRRLESSKKYEVELKSLFLKFTSEVVANAGLGIEGFCFEDDKVQSMFTNLDNNDFLDTFLIGIIVHFPFLTKLLRIQFLPTKHDKFFRTVVKKNLELRKSDPIPRNDFIQLMIEMEQTGEKIDEEIVAAHAVSFYLDGVETSSVTLNFIGCQLAIHQDVQEKLRKEVRSTLEKHGGVLTFEALKDMTYMNQVISESQRYFSALGFLGKICTDEFELQGSDGLNYRAKPGTELLIPICGLHKDPKYWDNPEIFDPERFSDENKQRIEKMAFIPFGEGPRICVGMRMAMLQMKSCLATLMKDYKLEVSPKMQLPLKLSPTYFLSAPLGGGWVLISKA
notes: codon-optimised; microsomes of baculovirus-infected High Five insect cells, coexpressed with A. mellifera NADPH-cytochrome P450 reductase
For B1, the Km [1] was 12.77 µM.
